The text below walks through data of patent US4764528A, “2,4-pentadienoic acid derivatives and platelet aggregation inhibitors containing the same” (Teruo Kabushiki Kaisha, priority 1986, dated 1988).

pIC50: −log10 of the molar value. Where two headings read alike, the source gives them in different places. A value given as a limit tells only on which side of the number the result lay.

The test system of one data set is platelet aggregation. The experiment in a line: Inhibition of platelet aggregation in rabbit platelet-rich plasma (Born's turbimetry). The class given is cell-based. Particulars: Oryctolagus cuniculus. The procedure: Using a syringe containing 3.8% sodium citrate solution (1 volume), 9 volumes of blood is drawn from the carotid artery of a rabbit. Said blood is centrifuged to give platelet-rich plasma (PRP: 7×10^5 /μl).
In a cuvette is placed 250 ul of said PRP, followed by incubation in a thermostat at 37° C. for 2 min. Then, 20 μl of physiological saline buffer solution of a 2,4-pentadienoic acid derivative to be tested is added, and the mixture is incubated for 3 min. A platelet-aggregation inducer, an arachidonic acid solution, a collagen solution or an ADP solution is then added, and platelet aggregation is measured by the Born's turbimetry (which is described, for example, in Journal of Physiology, vol. 168, p. 178 (1968)). 50% Inhibitory concentration of the platelet aggregation caused by arachidonic acid (60 μmol), collagen (10 μg/ml) or ADP (5 μmol) is shown in Table 5 in comparison with prostaglandin I2, aspirin or dipyridamol.
50% Inhibitory concentration as indicated in Table 5 means the concentration of a 2,4-pentadienoic acid derivative needed for inhibiting the platelet aggregation by 50% by the introduction of said 2,4-pentadienoic acid derivative, taking the platelet aggregation in the absence of 2,4-pentadienoic acid derivatives of the invention as 100%.

For data set [1] the following is noted: unstable vinylether group in the molecule; cited from earlier work.
The mark [2] stands for this setting: aggregation induced by ADP (5 μmol), rabbit PRP, 37° C., 3 min preincubation, read-out: Antiplatelet activity, 50% Inhibitory concentration, ADP.
[3] abbreviates: aggregation induced by arachidonic acid (60 μmol), rabbit PRP, 37° C., 3 min preincubation, read-out: Antiplatelet activity, 50% Inhibitory concentration, Arachidonic acid.
Where [4] appears, read: aggregation induced by collagen (10 μg/ml), rabbit PRP, 37° C., 3 min preincubation, read-out: Antiplatelet activity, 50% Inhibitory concentration, Collagen.

For the compound `O=C(O)/C=C/C=C/C1=C[C@H]2C[C@@H](O)[C@H](/C=C/[C@@H](O)C3CCCC3)[C@H]2C1` [Example 4], the pIC50 was 6.41 with platelet aggregation (setting [2]), 6.54 in the data set with platelet aggregation (setting [3]) and 6.64 in the data set on platelet aggregation (setting [4]).
`CCCCC[C@H](O)/C=C/[C@@H]1[C@H]2CC(C/C=C/C=C/C(=O)O)=C[C@H]2C[C@H]1O` [Example 6, 3-(5-carboxy-trans, trans-2,4-pentadienyl)-6-exo-(3α-hydroxy-trans-1-octenyl)-7-endo-hydroxybicyclo[3.3.0]oct-2-ene]: the pIC50 in the data set with platelet aggregation (setting [2]) was 6.15; in the data set on platelet aggregation (setting [3]), 6.09; with platelet aggregation (setting [4]) it was 6.30.
`OCCN(CCO)c1nc(N2CCCCC2)c2nc(N(CCO)CCO)nc(N3CCCCC3)c2n1` [dipyridamol, reference compound]: the pIC50 in the data set on platelet aggregation (setting [2]) is 3.33; with platelet aggregation (setting [3]) it was not above 3.00.
`O=C(O)/C=C/C=C/CC1=C[C@H]2C[C@@H](O)[C@H](/C=C/[C@@H](O)C3CCCC3)[C@H]2C1` [Example 9]: the pIC50 is 5.85 with platelet aggregation (setting [2]), 5.74 with platelet aggregation (setting [3]) and 5.96 in the data set on platelet aggregation (setting [4]).
Consider `CCCCC[C@H](O)/C=C/[C@@H]1[C@H]2C/C(=C/CCCC(=O)O)O[C@H]2C[C@H]1O` [prostaglandin I2, reference compound], for which the pIC50 with platelet aggregation (setting [2]) was 6.42; in the data set with platelet aggregation (setting [3]), 6.60; in the data set with platelet aggregation (setting [4]) it was 6.66. In addition, the “half life in the living body” value in data set [1] is given as “short”.
As to `CC(=O)Oc1ccccc1C(=O)O` [aspirin, reference compound], the pIC50 was not above 3.00 in the data set with platelet aggregation (read-out: Antiplatelet activity, 50% Inhibitory concentration, ADP); 4.77 in the data set with platelet aggregation (read-out: Antiplatelet activity, 50% Inhibitory concentration, Arachidonic acid); 3.70 with platelet aggregation (read-out: Antiplatelet activity, 50% Inhibitory concentration, Collagen).
As for `CCCCC[C@H](O)/C=C/[C@@H]1[C@H]2CC(/C=C/C=C/C(=O)O)=C[C@H]2C[C@H]1O` [Example 1, 3-(4-carboxy-trans, trans-1,3-butadienyl)-6-exo-(3α-hydroxy-trans-1-octenyl)-7-endo-hydroxybicyclo[3.3.0]oct-2-ene], the pIC50 with platelet aggregation (setting [2]) is 6.28; in the data set on platelet aggregation (setting [3]) it was 6.33; with platelet aggregation (setting [4]) it was 6.49.
